US20130078351A1, “COMPOUNDS AND METHODS FOR ENHANCING SALTY TASTE” (Monell Chemical Senses Center, priority 2010, published 2013)

Experiments:
human taste = assay: Psychophysical assessment of salty taste enhancing properties; assay type: in vivo
Method: 121 subjects participated in this study. They were familiar with the taste of the 5 modalities (sweet, bitter, umami, sour, and salty), and the use of a modality—specific task. Each subject was presented with 5 cups, each having 10 ml of fluid, plus a large amount of water as a rinse before and in between each sampling. Subjects were told to hold the sample in their mouth for several seconds before making a judgment. Subjects sampled and rated all five solutions, then repeated the study. Subjects rated intensity and modality. The samples tested were • 1. 50 mM NaCl • 2. 75 mM NaCl • 3. N-(2-hydroxyethyl)-4-methylpentanamide at 20 ppm • 4. 50mM NaCl plus 20 ppm N-(2-hydroxyethyl)-4-methylpentanamide • 5. 75 mM NaCl plus 20 ppm N-(2-hydroxyethyl)-4-methylpentanamide
The results of this study are depicted in FIG. 1. The X-axis of FIG. 1 provides the identity of the five solutions that were rated and the Y-axis provides the Geometric Mean saltiness intensity ratings. Error bars are Geometric Standard Errors. […] It was slightly bitter tasting with an average bitterness intensity of 3 (data not shown). N-(2-hydroxyethyl)-4-methylpentanamide enhanced the saltiness of 50 mM NaCl by more than 100% and the saltiness of 75 mM NaCl by approximately 35%. Consistency among subjects was high as indicated by the error bars.

[1] = molecular target: T1, Epithelial Sodium Channel (ENaC) subunits delta/beta/gamma (Homo sapiens, UniProt P51168+P51170+P51172); assay: Testing in Xenopus oocytes expressing ENaC (inward sodium current recording); assay type: cell-based; conditions: oocyte expressing delta
T1 construct: expressed in transfected cells; host or cells: Xenopus laevis oocytes injected with cRNA
T1 sequence (P51172 1-802): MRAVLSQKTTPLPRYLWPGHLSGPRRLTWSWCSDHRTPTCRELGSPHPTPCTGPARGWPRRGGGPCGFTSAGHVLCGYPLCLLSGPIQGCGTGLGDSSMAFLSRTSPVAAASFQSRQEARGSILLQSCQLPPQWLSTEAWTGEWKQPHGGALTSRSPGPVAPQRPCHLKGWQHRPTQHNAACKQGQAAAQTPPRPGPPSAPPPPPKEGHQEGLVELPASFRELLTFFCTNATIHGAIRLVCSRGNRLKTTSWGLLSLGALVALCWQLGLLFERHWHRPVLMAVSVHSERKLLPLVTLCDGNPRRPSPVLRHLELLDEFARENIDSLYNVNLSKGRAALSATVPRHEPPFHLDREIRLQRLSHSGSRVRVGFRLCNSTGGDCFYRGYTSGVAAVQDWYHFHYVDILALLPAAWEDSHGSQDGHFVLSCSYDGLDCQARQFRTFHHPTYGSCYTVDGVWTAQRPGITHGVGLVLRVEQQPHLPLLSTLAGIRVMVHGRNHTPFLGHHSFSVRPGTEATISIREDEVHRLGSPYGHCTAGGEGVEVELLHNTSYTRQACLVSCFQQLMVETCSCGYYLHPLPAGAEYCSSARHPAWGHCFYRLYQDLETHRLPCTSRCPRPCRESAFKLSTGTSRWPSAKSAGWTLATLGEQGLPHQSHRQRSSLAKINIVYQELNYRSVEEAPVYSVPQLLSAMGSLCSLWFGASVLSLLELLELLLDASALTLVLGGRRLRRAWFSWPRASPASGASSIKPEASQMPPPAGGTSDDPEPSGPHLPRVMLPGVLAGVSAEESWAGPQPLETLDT
T1 sequence (P51168 1-640): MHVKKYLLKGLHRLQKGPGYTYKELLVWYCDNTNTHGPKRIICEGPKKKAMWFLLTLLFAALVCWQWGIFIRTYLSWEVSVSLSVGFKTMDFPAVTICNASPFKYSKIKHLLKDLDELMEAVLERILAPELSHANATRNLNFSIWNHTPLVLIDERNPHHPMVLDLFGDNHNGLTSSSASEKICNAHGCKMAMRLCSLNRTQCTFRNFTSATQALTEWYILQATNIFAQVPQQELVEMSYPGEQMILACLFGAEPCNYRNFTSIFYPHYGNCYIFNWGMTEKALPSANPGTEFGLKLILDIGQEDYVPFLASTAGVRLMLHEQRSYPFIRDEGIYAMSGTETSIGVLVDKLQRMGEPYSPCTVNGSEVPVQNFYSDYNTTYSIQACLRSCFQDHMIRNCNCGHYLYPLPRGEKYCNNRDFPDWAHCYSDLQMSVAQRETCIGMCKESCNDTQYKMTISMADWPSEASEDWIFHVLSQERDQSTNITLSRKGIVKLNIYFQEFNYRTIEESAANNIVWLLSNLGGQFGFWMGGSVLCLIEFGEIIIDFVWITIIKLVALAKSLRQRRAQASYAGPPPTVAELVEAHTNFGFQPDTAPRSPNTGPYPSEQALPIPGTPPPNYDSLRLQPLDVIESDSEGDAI
T1 sequence (P51170 1-649): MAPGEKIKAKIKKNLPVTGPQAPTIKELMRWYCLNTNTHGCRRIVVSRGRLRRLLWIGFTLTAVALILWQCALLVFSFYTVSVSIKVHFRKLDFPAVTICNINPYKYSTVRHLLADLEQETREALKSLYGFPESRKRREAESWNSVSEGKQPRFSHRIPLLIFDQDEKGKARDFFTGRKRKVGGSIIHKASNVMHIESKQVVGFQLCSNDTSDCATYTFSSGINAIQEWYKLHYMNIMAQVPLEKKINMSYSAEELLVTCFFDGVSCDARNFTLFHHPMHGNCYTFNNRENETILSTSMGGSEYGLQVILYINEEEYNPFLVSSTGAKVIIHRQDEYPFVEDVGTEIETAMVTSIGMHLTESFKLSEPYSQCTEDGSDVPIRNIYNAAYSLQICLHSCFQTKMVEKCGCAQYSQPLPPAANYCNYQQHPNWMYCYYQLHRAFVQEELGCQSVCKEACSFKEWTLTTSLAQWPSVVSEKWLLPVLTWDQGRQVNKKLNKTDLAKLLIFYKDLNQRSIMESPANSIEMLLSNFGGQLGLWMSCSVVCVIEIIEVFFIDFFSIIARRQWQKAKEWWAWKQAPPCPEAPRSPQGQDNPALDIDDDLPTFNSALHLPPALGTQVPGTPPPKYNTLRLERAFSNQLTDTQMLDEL
Method: The frog, Xenopus laevis, produces oocytes that are particularly obliging in permitting a foreign gene to be incorporated into its protein translation system. The egg then makes this foreign protein encoded by the injected complimentary RNA (cRNA). Oocytes are harvested when at stage 5 or 6, from female Xenopus and defolliculated (using trypsin) and placed in low sodium culture medium. After overnight culture the egg is injected with the cRNA of the protein(s) of interest.
There is evidence that one of the major “receptors” of salty taste is the ENaC. This channel functions as a heterotrimer, a complex of three different peptides. The transfected eggs are then cultured for 4 to 6 days. Depending upon the endpoint of the study, all three subunits are expressed into one cell or one subunit is expressed per cell. The internal machinery of the cell places the ENaC into the plasma membrane. These preparations can be used as follows: • 1. Two Electrode Voltage Clamp (TEVC) across the entire oocyte is the most direct method for detecting ion flux through the ENaC, but it will respond to any ion movement, making it less desirable for precise analyses, but very useful as an initial screen. • 2. Patch clamp is used to record movement of very few ions through very few channels. […]

reversibility of inward current [1]: completely reversible
effect on sodium currents (inward current) in oocytes ([1]; successive addition of increasing (nanomolar) concentrations, from baseline state): enhancement of sodium currents
Compound: CC(C)CCC(=O)NCCO [N-(2-hydroxyethyl)-4-methylpentanamide]
enhancement of saltiness of 50 mM NaCl (human taste; 50 mM NaCl plus 20 ppm compound, geometric mean saltiness intensity ratings): more than 100%
enhancement of saltiness of 75 mM NaCl (human taste; 75 mM NaCl plus 20 ppm compound, geometric mean saltiness intensity ratings): approximately 35%
saltiness of its own (saltiness intensity rating) (human taste; compound alone at 20 ppm, 121 subjects): almost no saltiness of its own
average bitterness intensity (human taste; compound alone at 20 ppm, data not shown): 3
